Source: patent US20260015358A1, “BICYCLIC DERIVATIVES, COMPOSITIONS AND USES THEREOF” (Danatlas Pharmaceuticals Co., Ltd., priority 2023, published 2026)

How the values were obtained:
[1] = target: T1, WRN [UniPro: Q14191 (WRN_HUMAN), N500-C946] (Homo sapiens (Human), UniProt Q14191); experiment: WRN ATPase assay (ADP-Glo); type: biochemical; conditions: WRN enzymatic activity assay
[2] = target: T1, WRN [UniPro: Q14191 (WRN_HUMAN), N500-C946]; experiment: WRN unwinding assay (FORKF DNA, fluorescence); type: biochemical; conditions: Table 14

T1 sequence (Q14191 500-946): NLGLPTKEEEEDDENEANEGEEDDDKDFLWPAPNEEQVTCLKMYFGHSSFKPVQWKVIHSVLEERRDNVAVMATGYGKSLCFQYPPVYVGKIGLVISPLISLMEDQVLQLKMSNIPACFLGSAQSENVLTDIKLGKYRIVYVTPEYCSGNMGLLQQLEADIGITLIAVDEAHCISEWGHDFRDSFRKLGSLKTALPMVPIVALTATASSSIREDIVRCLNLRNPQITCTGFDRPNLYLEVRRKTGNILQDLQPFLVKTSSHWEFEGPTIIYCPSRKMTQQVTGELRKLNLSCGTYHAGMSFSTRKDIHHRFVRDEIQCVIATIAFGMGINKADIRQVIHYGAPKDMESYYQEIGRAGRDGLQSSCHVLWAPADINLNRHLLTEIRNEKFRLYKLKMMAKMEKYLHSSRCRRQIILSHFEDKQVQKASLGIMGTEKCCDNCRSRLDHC

| IC50 [1] [nM] | IC50 [2] [nM] | Compound |
| --- | --- | --- |
| < 100 | 100 to 1000 | CCc1c(N2CCN(C(=O)CNC(=O)c3cc(N)c(F)cc3F)CC2)c(=O)n2nc(C3=CCOCC3)nc2n1CC(=O)Nc1ccc(C(F)(F)F)cc1Cl [Example 373, 5-Amino-N-(2-(4-(4-(2-((2-chloro-4-(trifluoromethyl)phenyl)amino)-2-oxoethyl)-2-(3,6-dihydro-2H-pyran-4-yl)-5-ethyl-7-oxo-4,7-dihydro-[1,2,4]triazolo[1,5-a]pyrimidin-6-yl)piperazin-1-yl)-2-oxoethyl)-2,4-difluorobenzamide] |
| 100 to 1000 | 100 to 1000 | CCc1c(N2CCN(C(=O)c3nnc(C)[nH]3)CC2)c(=O)n2nc(C3=CCOCC3)nc2n1CC(=O)Nc1ccc(C(F)(F)F)cc1F [Example 312, 2-(2-(3,6-Dihydro-2H-pyran-4-yl)-5-ethyl-6-(4-(5-methyl-4H-1,2,4-triazole-3-carbonyl)piperazin-1-yl)-7-oxo-[1,2,4]triazolo[1,5-a]pyrimidin-4(7H)-yl)-N-(2-fluoro-4-(trifluoromethyl)phenyl)acetamide] |
| 100 to 1000 | < 100 | CCc1c(N2CCN(C(=O)CNc3ncnc4cccnc34)CC2)c(=O)n2nc(C3=CCOCC3)nc2n1CC(=O)Nc1ccc(C(F)(F)F)cc1Cl [Example 362, N-(2-Chloro-4-(trifluoromethyl)phenyl)-2-(2-(3,6-dihydro-2H-pyran-4-yl)-5-ethyl-7-oxo-6-(4-(pyrido[3,2-d]pyrimidin-4-ylglycyl)piperazin-1-yl)-[1,2,4]triazolo[1,5-a]pyrimidin-4(7H)-yl)acetamide] |
| 100 to 1000 | 100 to 1000 | CCNC(=O)C(=O)N1CCN(c2c(CC)n(CC(=O)Nc3ccc(C(F)(F)F)cc3Cl)c3nc(C4=CCOCC4)nn3c2=O)CC1 [Example 336, 2-(4-(4-(2-((2-Chloro-4-(trifluoromethyl)phenyl)amino)-2-oxoethyl)-2-(3,6-dihydro-2H-pyran-4-yl)-5-ethyl-7-oxo-4,7-dihydro-[1,2,4]triazolo[1,5-a]pyrimidin-6-yl)piperazin-1-yl)-N-ethyl-2-oxoacetamide] |
| < 100 | < 100 | CCc1c(N2CCN(C(=O)C(=O)Nc3nc(C)co3)CC2)c(=O)n2nc(C3=CCOCC3)nc2n1CC(=O)Nc1ccc(C(F)(F)F)cc1Cl [Example 353, 2-(4-(4-(2-((2-Chloro-4-(trifluoromethyl)phenyl)amino)-2-oxoethyl)-2-(3,6-dihydro-2H-pyran-4-yl)-5-ethyl-7-oxo-4,7-dihydro-[1,2,4]triazolo[1,5-a]pyrimidin-6-yl)piperazin-1-yl)-N-(4-methyloxazol-2-yl)-2-oxoacetamide] |
| < 100 | < 100 | CCc1c(N2CCN(C(=O)c3cnn4cccc4c3O)CC2)c(=O)n2nc(C3=CCOCC3)nc2n1CC(=O)Nc1ccc(C(F)(F)F)cc1F [Example 318, 2-(2-(3,6-Dihydro-2H-pyran-4-yl)-5-ethyl-6-(4-(4-hydroxypyrrolo[1,2-b]pyridazine-3-carbonyl)piperazin-1-yl)-7-oxo-[1,2,4]triazolo[1,5-a]pyrimidin-4(7H)-yl)-N-(2-fluoro-4-(trifluoromethyl)phenyl)acetamide] |

More lines, now with the values behind:

| Compound | IC50 [1] [nM] | IC50 [2] [nM] |
| --- | --- | --- |
| CCc1c(N2CCN(C(=O)c3n[nH]c(=O)n(C)c3=O)CC2)c(=O)n2nc(C3=CCOCC3)nc2n1CC(=O)Nc1ccc(Cl)cc1C(F)(F)F [Example 73, N-(4-Chloro-2-(trifluoromethyl)phenyl)-2-(2-(3,6-dihydro-2H-pyran-4-yl)-5-ethyl-6-(4-(4-methyl-3,5-dioxo-2,3,4,5-tetrahydro-1,2,4-triazine-6-carbonyl)piperazin-1-yl)-7-oxo-[1,2,4]triazolo[1,5-a]pyrimidin-4(7H)-yl)acetamide] | < 100 | < 100 |
| CCc1c(N2CCN(C(=O)CNC(=O)COC)CC2)c(=O)n2nc(C3=CCOCC3)nc2n1CC(=O)Nc1ccc(C(F)(F)F)cc1Cl [Example 174, N-(2-Chloro-4-(trifluoromethyl)phenyl)-2-(2-(3,6-dihydro-2H-pyran-4-yl)-5-ethyl-6-(4-((2-methoxyacetyl)glycyl)piperazin-1-yl)-7-oxo-[1,2,4]triazolo[1,5-a]pyrimidin-4(7H)-yl)acetamide] | < 100 | < 100 |
| CCc1c(N2CCN(C(=O)c3ncc4ccccc4c3O)CC2)c(=O)n2nc(C3=CCOCC3)nc2n1CC(=O)Nc1ccc(C(F)(F)F)cc1Cl [Example 204, N-(2-Chloro-4-(trifluoromethyl)phenyl)-2-(2-(3,6-dihydro-2H-pyran-4-yl)-5-ethyl-6-(4-(4-hydroxyisoquinoline-3-carbonyl)piperazin-1-yl)-7-oxo-[1,2,4]triazolo[1,5-a]pyrimidin-4(7H)-yl)acetamide] | < 100 | < 100 |
| CCc1c(N2CCN(C(=O)CNC(=O)c3ccccc3)CC2)c(=O)n2nc(-c3cnc4c(c3)CCCO4)nc2n1CC(=O)Nc1ccc(C(F)(F)F)cc1Cl [Example 236, N-(2-(4-(4-(2-((2-Chloro-4-(trifluoromethyl)phenyl)amino)-2-oxoethyl)-2-(3,4-dihydro-2H-pyrano[2,3-b]pyridin-6-yl)-5-ethyl-7-oxo-4,7-dihydro-[1,2,4]triazolo[1,5-a]pyrimidin-6-yl)piperazin-1-yl)-2-oxoethyl)benzamide] | 100 to 1000 | 100 to 1000 |
| CCc1c(N2CCN(C(=O)CNC(=O)c3cc(F)cc(NC)c3)CC2)c(=O)n2nc(N3CCOCC3)nc2n1CC(=O)Nc1ccc(C(F)(F)F)cc1F [Example 253, N-(2-(4-(5-Ethyl-4-(2-((2-fluoro-4-(trifluoromethyl)phenyl)amino)-2-oxoethyl)-2-morpholino-7-oxo-4,7-dihydro-[1,2,4]triazolo[1,5-a]pyrimidin-6-yl)piperazin-1-yl)-2-oxoethyl)-3-fluoro-5-(methylamino)benzamide] | < 100 | < 100 |
| CCc1c(N2CCN(C(=O)CNC(=O)N(C)C)CC2)c(=O)n2nc(C3=CCOCC3)nc2n1CC(=O)Nc1ccc(C(F)(F)F)cc1Cl [Example 173, N-(2-Chloro-4-(trifluoromethyl)phenyl)-2-(2-(3,6-dihydro-2H-pyran-4-yl)-6-(4-((dimethylcarbamoyl)glycyl)piperazin-1-yl)-5-ethyl-7-oxo-[1,2,4]triazolo[1,5-a]pyrimidin-4(7H)-yl)acetamide] | 100 to 1000 | 100 to 1000 |
| CCc1c(N2CCN(C(=O)CNC(=O)c3ccn[nH]3)CC2)c(=O)n2nc(C3=CCOCC3)nc2n1CC(=O)Nc1ccc(C(F)(F)F)cc1Cl [Example 101, N-(2-(4-(4-(2-((2-Chloro-4(trifluoromethyl)phenyl)amino)-2-oxoethyl)-2-(3,6-dihydro-2H-pyran-4-yl)-5-ethyl-7-oxo-4,7-dihydro-[1,2,4]triazolo[1,5-a]pyrimidin-6-yl)piperazin-1-yl)-2-oxoethyl)-1H-pyrazole-5-carboxamide] | < 100 | < 100 |
| CCc1c(N2CCN(C(=O)CNC(=O)c3ccccc3F)CC2)c(=O)n2nc(C3=CCOCC3)nc2n1CC(=O)Nc1ccc(C(F)(F)F)nc1Cl [Example 163, N-(2-(4-(4-(2-((2-Chloro-6-(trifluoromethyl)pyridin-3-yl)amino)-2-oxoethyl)-2-(3,6-dihydro-2H-pyran-4-yl)-5-ethyl-7-oxo-4,7-dihydro-[1,2,4]triazolo[1,5-a]pyrimidin-6-yl)piperazin-1-yl)-2-oxoethyl)-2-fluorobenzamide] | < 100 | < 100 |
| CCc1c(N2CCN(C(=O)c3c(O)nn4ccccc34)CC2)c(=O)n2nc(C3=CCOCC3)nc2n1CC(=O)Nc1ccc(C(F)(F)F)cc1Cl [Example 304, N-(2-Chloro-4-(trifluoromethyl)phenyl)-2-(2-(3,6-dihydro-2H-pyran-4-yl)-5-ethyl-6-(4-(2-hydroxypyrazolo[1,5-a]pyridine-3-carbonyl)piperazin-1-yl)-7-oxo-[1,2,4]triazolo[1,5-a]pyrimidin-4(7H)-yl) acetamide] | < 100 | < 100 |
| CCNC(=O)NCC(=O)N1CCN(c2c(CC)n(CC(=O)Nc3ccc(C(F)(F)F)cc3Cl)c3nc(C4=CCOCC4)nn3c2=O)CC1 [Example 41, N-(2-Chloro-4-(trifluoromethyl)phenyl)-2-(2-(3,6-dihydro-2H-pyran-4-yl)-5-ethyl-6-(4-((ethylcarbamoyl)glycyl)piperazin-1-yl)-7-oxo-[1,2,4]triazolo[1,5-a]pyrimidin-4(7H)-yl)acetamide] | < 100 | < 100 |
| CCc1c(N2CCN(C(=O)CNC(=O)c3ncnc(C)c3O)CC2)c(=O)n2nc(C3=CCOCC3)nc2n1CC(=O)Nc1ccc(C(F)(F)F)cc1F [Example 222, N-(2-(4-(2-(3,6-Dihydro-2H-pyran-4-yl)-5-ethyl-4-(2-((2-fluoro-4-(trifluoromethyl)phenyl)amino)-2-oxoethyl)-7-oxo-4,7-dihydro-[1,2,4]triazolo[1,5-a]pyrimidin-6-yl)piperazin-1-yl)-2-oxoethyl)-5-hydroxy-6-methylpyrimidine-4-carboxamide] | < 100 | < 100 |
| CCc1c(N2CCN(C(=O)CNC(=O)Nc3cc(F)cc(F)c3)CC2)c(=O)n2nc(C3=CCOCC3)nc2n1CC(=O)Nc1ccc(C(F)(F)F)cc1Cl [Example 179, N-(2-Chloro-4-(trifluoromethyl)phenyl)-2-(6-(4-(((3,5-difluorophenyl)carbamoyl)glycyl)piperazin-1-yl)-2-(3,6-dihydro-2H-pyran-4-yl)-5-ethyl-7-oxo-[1,2,4]triazolo[1,5-a]pyrimidin-4(7H)-yl)acetamide] | < 100 | < 100 |
| CCc1c(N2CCN(C(=O)CNS(=O)(=O)c3ccccc3)CC2)c(=O)n2nc(C3=CCOCC3)nc2n1CC(=O)Nc1ccc(C(F)(F)F)cc1Cl [Example 171, N-(2-Chloro-4-(trifluoromethyl)phenyl)-2-(2-(3,6-dihydro-2H-pyran-4-yl)-5-ethyl-7-oxo-6-(4-(2-(phenylsulfonamido)acetyl)piperazin-1-yl)-[1,2,4]triazolo[1,5-a]pyrimidin-4(7H)-yl)acetamide] | 100 to 1000 | 100 to 1000 |
